Experimental data as given in patent publication US6451853B1, “Small molecules that elicit a polarized Th1 response and for modulation of cellular immunity” (Dovetail Technologies, Inc, priority 1998, dated 2002).
Several values for one entry are separate records, joined by “and”; a condition that tells them apart may be missing. Equal values may be shown once.

How the values were obtained:
[1] = air and aqueous solutions; cited from earlier work
[2] = system: HUT-78 T cell line; experiment: CD69 expression by flow cytometry, HUT-78; assay type: cell-based
Experimental: (§1) CD69 Expression. CD69 expression was assessed by flow cytometry as described previously. […] CD69 is one of the earliest stimulation markers expressed on T cells upon activation (Testi et al., 1994). The cross-linking of this marker is believed to generate extracellular Ca++ influxes and activate phospholipase A2, and thus it is believed to be an integral part of the activation process (Testi et al., 1994).

[3] = system: PBMC; experiment: CD69 expression by flow cytometry, PBMC T cells; assay type: cell-based; settings: for CD69 Expression, MFI of 10,000 events: PBMC
Experimental: as §1

[4] = system: surface TNF alpha on human monocytes; experiment: Surface TNF alpha expression on monocytes by FACS (CD14+ cells); assay type: cell-based; settings: for Monocyte TNF alpha surface expression, % Positive: fluorescence greater than isotype control peak
[5] = system: T cells; experiment: Ca++ mobilization kinetics with fluo-3AM; assay type: cell-based; settings: final concentrations 0.14 mM to 1.4 mM; eight minute time period; data not shown
Experimental: The kinetics of Ca++ mobilization was observed using the dye fluo-3AM which is a membrane permeable Ca++ indicator which becomes increasingly fluorescent upon Ca++ binding. A baseline reading indicates the resting state of Ca++, followed by injection of Taurox-SB to yield final concentrations of 0.14 mM to 1.4 mM. […] PHA was added as a positive control for the elicitation of a Ca++ response (Greimers et al., 1996). […] (Data not shown.) The role of the second messenger response could be varied, as many proteins are activated by Ca++-regulated intracellular pathways. Second messengers may serve to enhance production of cytokines by immune cells.

[6] = system: Cytokine mRNA from T cells (PBMC); experiment: RNase protection assay of cytokine mRNA in PBMC (T cells), with or without PMA/ionomycin; settings: 6 hours, unit not given
[7] = system: surface TNF alpha on human T cells; experiment: Surface TNF alpha expression on T cells by FACS (gating on CD3+ cells); settings: for TNF alpha in T cells, % Total / TNF alpha in T cells, MFI: marker All; for surface TNF alpha, overall MFI: 20 mM NAC without or with 20 mM BT; for surface TNF alpha expression, Time Course: each drug 20 mM
[8] = system: MOLT-4 T cell line; experiment: CD69 expression by flow cytometry, MOLT-4; assay type: cell-based
Experimental: as §1

[9] = system: Cloudman S-91 cells; experiment: CTL lysis of Cloudman S-91 targets (CMFDA leakage); assay type: cell-based, DBA/2 mouse; settings: CTLs generated using 0.14 M Taurox-SB in addition to IL-6/IL-12; 10:1 effector:target, 16 hours
Experimental: The analysis was extended to include killing of the Cloudman S-91 targets used for the CTL generation. Cloudman S-91 cells (5×104) were loaded with chloromethylfluorescein diacetate (CMFDA) and incubated for 16 hours with CTLs generated from DBA/2 splenocytes at a 10:1 effector:target ratio. Lysis was detected by leakage of the CMFDA.

[10] = system: human PBMCs; experiment: Cell cycle analysis; assay type: cell-based; settings: 18 and 24 hours of exposure
[11] = system: human PBMCs; experiment: PBMC proliferation by 3H-thymidine incorporation; assay type: cell-based
Experimental: Treatment with 0.14 mM Taurox-SB increased proliferation of human PBMCs with and without PHA, as detected by incorporation of 3H-thymidine (Table 18).
Human PBMCs are obtained through collection of peripheral blood and isolation over Ficoll 1077. The cells are counted and 5×10^5 cells are plated in triplicate in 96 well plates in 100 μl of media (RPMI 1640, 20% FBS) containing specified conditions. These cells are then allowed to incubate for 48 hours. After this incubation 1 μCi of ^3H-Thymidine is added in a […] volume. The plates are incubated an additional 24 hours and harvested on a Tomtec plate harvester and the filtermat read in a scintillation counter. Many studies have been performed using the drugs in combination with PHA (T cell stimulant (mitogen)) obtained from Sigma.

[12] = system: surface TNF alpha on human monocytes; experiment: Surface TNF alpha expression on monocytes by FACS (CD14+ cells); assay type: cell-based; settings: all drugs 20 mM
Excerpt: The effect of NAC and BT, alone or in combination, on surface TNF alpha expression by stimulated or unstimulated monocytes (prepared from PBM) was examined. […] Table 6. While only a small proportion of T cells from each donor were responsive to the combination NAC/BT, the effect on surface TNF alpha expression in monocytes was significant.

[13] = system: soluble TNF alpha release from human lymphocytes; experiment: Soluble TNF alpha in supernatants by ELISA; settings: Media (unstimulated); drugs 20 mM; ELISA standard curve in pg/mL, unit not given
[14] = Taurox-SB 14 nM, no stimulation
[15] = Taurox-SB 14 nM, with stimulation
[16] = Taurox-SB 1.4 uM, no stimulation
[17] = Taurox-SB 1.4 uM, with stimulation
[18] = Taurox-SB 1.4 mM, no stimulation
[19] = Taurox-SB 1.4 mM, with stimulation
[20] = With PMA + Ionomycin stimulation, 1.4 mM TSB, 16 hours
[21] = With PMA + Ionomycin stimulation, .14 mM TSB, 16 hours
[22] = Without stimulation, 1.4 mM TSB, 16 hours
[23] = Without stimulation, .14 mM TSB, 16 hours

## NCCC(=O)NCCS [beta-aletheine]
[1]
  stability: unstable in air and aqueous solutions

## O=C(CCNC(=O)OCc1ccccc1)NCCS(=O)(=O)O [Taurox-SB, carbobenzoxy beta-alanyl taurine]
[2]; HUT-78 + PHA, 1.4 mM
  CD69 Expression, MFI of 10,000 events: 409
[2]; HUT-78, 1.4 mM
  CD69 Expression, MFI of 10,000 events: 278
[3]; 1.4 mM
  CD69 Expression, MFI of 10,000 events: 7
[3]; 14 mM
  CD69 Expression, MFI of 10,000 events: 11
[3]; T cells, concentrations less than 1.4 mM
  CD69 expression: without effect
[4]; PMA/iono + Taurox-SB 1.4 mM
  Monocyte TNF alpha surface expression, % Positive: 59% and 53% and 57% and 36%
[4]; Taurox-SB 1.4 mM, no PMA/iono
  Monocyte TNF alpha surface expression, % Positive: 9% and 3%
[4]; Taurox-SB 1.4 mM, no PMA/iono, separate experiments
  Monocyte TNF alpha surface expression, MFI: 19.91 and 16.68 and 10.95
[5]
  Ca++ mobilization: rising or sustained
[6]; [14]
  Effect on GAPDH message: −20.94
  Effect on IFNg message: 21.53
  Effect on Ltb message: 29.83
  Effect on TGFb1 message: 17.51
  Effect on TNFa message: 2.10
  Effect on TNFb message: 62.96
[6]; [15]
  Effect on GAPDH message: −8.10
  Effect on IFNg message: −32.73
  Effect on Ltb message: 12.29
  Effect on TGFb1 message: −10.25
  Effect on TNFa message: −15.96
  Effect on TNFb message: 22.72
[6]; [16]
  Effect on GAPDH message: −8.16
  Effect on IFNg message: 16.76
  Effect on Ltb message: 21.09
  Effect on TGFb1 message: 29.61
  Effect on TNFa message: 21.27
  Effect on TNFb message: 311.16
[6]; [17]
  Effect on GAPDH message: 4.88
  Effect on IFNg message: −9.85
  Effect on Ltb message: 2.92
  Effect on TGFb1 message: −0.09
  Effect on TNFa message: 48.67
  Effect on TNFb message: 4.18
[6]; [18]
  Effect on GAPDH message: 4.96 _
  Effect on IFNg message: 388.08
  Effect on Ltb message: 85.61
  Effect on TGFb1 message: 36.89
  Effect on TNFa message: 461.93
  Effect on TNFb message: 373.82
[6]; [19]
  Effect on GAPDH message: −38.75
  Effect on IFNg message: −64.90
  Effect on Ltb message: 234.28
  Effect on TGFb1 message: −25.88
  Effect on TNFa message: −100.00
  Effect on TNFb message: 20.95
[7]; [20]
  TNF alpha in T cells, % Total: 88.89%
  TNF alpha in T cells, MFI: 85.04
[7]; [21]
  TNF alpha in T cells, % Total: 85.64%
  TNF alpha in T cells, MFI: 169.68
[7]; [22]
  TNF alpha in T cells, % Total: 72.09%
  TNF alpha in T cells, MFI: 25.34
[7]; [23]
  TNF alpha in T cells, % Total: 78.07%
  TNF alpha in T cells, MFI: 20.18
[8]; MOLT-4 + PHA, 1.4 mM
  CD69 Expression, MFI of 10,000 events: 547
[8]; MOLT-4, 1.4 mM
  CD69 Expression, MFI of 10,000 events: 208
[9]
  lysis of Cloudman S-91 targets: 73%
[10]
  cell cycle distribution: increase in the proportion of cells in G2/M
[11]; 0.14 mM, No PHA
  PBMC Proliferation, mean cpm ± SD: 2964 ± 684 cpm
[11]; 0.14 mM, PHA 10 μg/ml
  PBMC Proliferation, mean cpm ± SD: 5538 ± 597 cpm
[11]; 1.4 mM
  viability: slight reduction in viability
[11]; .014 mM, No PHA
  PBMC Proliferation, mean cpm ± SD: 1346 ± 70 cpm
[11]; .014 mM, PHA 10 μg/ml
  PBMC Proliferation, mean cpm ± SD: 4794 ± 652 cpm

## CC(=O)N[C@@H](CS)C(=O)O [NAC, N-acetyl-L-cysteine, reference compound]
[12]; stimulated monocytes
  surface TNF alpha expression: relative ineffectiveness
[12]; unstimulated monocytes
  surface TNF alpha expression: not upregulated
[13]
  Soluble TNF: 15
[7]; NAC + Stimulation (1 micromolar Ionomycin, 10 ng/ml PMA), individual donors
  surface TNF alpha, overall MFI: 25.32 and 31.12 and 95.45 and 53.48 and 17.39 and 12.59
[7]; NAC + Stimulation with 1 ng PMA
  surface TNF alpha, overall MFI: 11.31 and 12.76
[7]; Pma/iono, 6 hours
  surface TNF alpha expression, Time Course: 82
[7]; Pma/iono, 16 hours
  surface TNF alpha expression, Time Course: 93
[7]; Pma/iono, 24 hours
  surface TNF alpha expression, Time Course: 101
[7]; Pma/iono, 42 hours
  surface TNF alpha expression, Time Course: 113
[7]; Pma/iono, 68 hours
  surface TNF alpha expression, Time Course: 80
[7]; no stimulation, individual donors
  surface TNF alpha, overall MFI: 24.7 and 6.96 and 17.49 and 6.34 and 6.68
[7]; unstimulated, 6 hours
  surface TNF alpha expression, Time Course: 20
[7]; unstimulated, 16 hours
  surface TNF alpha expression, Time Course: 33
[7]; unstimulated, 24 hours
  surface TNF alpha expression, Time Course: 39
[7]; unstimulated, 42 hours
  surface TNF alpha expression, Time Course: 56
[7]; unstimulated, 68 hours
  surface TNF alpha expression, Time Course: 47
